The results in this text go back to patent publication US8101760B2, “Glucocorticoid receptor modulator and methods of use” (Eli Lilly and Company, priority 2007, dated 2012).

For one series, the system named is serum osteocalcin. The experiment in a line: Serum osteocalcin assay. The series is classed as in vivo, mouse. To be noted: mice, oral, seven days; 1 mg/kg/day Compound (I) vs 10 mg/kg/day prednisolone; mean of 6. An excerpt: Bone loss/osteoporosis and the resulting increased risk of fracture is a common and significant adverse effect that results from glucocorticoid therapy. Glucocorticoid induced osteoporosis is believed to result, at least in part, from an inhibition of bone formation. The measurement of serum osteocalcin, a biological marker of bone synthesis, is a recognized tool for assessing the adverse effects of glucocorticoid therapy on bone. (see Pearce et al., J. Clin. Endocrino. Metab. 83: 801-806, (1998)).
To assess the effects of Compound (I) on bone formation, Compound (I) is formulated in a vehicle comprising 5% carboxymethyl cellulose and 0.25% Tween 80 and administered orally via gavage to sixteen week old male Swiss-Web mice (Harlan Industries, Indianapolis, Ind.) for seven days. For comparison, prednisolone is administered orally in the same vehicle. Serum is collected 24 hours after the last dose and osteocalcin levels are determined using a competitive radioimmunoassay (RIA) kit (Biomedical Technologies, Inc., Stoughton, Mass.) modified to a 96 well format. […] The filters are punched and the radioactivity quantitated on a gamma counter (Cobra II, Packard Instruments, Meriden, Conn.). Radioactivity detected on the filters from test samples is inversely proportional to serum osteocalcin concentration. […]

Series [1] has as its target T1, human MR (mineralocorticoid receptor) (Homo sapiens, UniProt P08235).
T1 construct: expressed in transfected cells; host or cells: HEK293 (lysate, '293-MR lysate')
T1 sequence (P08235 1-984): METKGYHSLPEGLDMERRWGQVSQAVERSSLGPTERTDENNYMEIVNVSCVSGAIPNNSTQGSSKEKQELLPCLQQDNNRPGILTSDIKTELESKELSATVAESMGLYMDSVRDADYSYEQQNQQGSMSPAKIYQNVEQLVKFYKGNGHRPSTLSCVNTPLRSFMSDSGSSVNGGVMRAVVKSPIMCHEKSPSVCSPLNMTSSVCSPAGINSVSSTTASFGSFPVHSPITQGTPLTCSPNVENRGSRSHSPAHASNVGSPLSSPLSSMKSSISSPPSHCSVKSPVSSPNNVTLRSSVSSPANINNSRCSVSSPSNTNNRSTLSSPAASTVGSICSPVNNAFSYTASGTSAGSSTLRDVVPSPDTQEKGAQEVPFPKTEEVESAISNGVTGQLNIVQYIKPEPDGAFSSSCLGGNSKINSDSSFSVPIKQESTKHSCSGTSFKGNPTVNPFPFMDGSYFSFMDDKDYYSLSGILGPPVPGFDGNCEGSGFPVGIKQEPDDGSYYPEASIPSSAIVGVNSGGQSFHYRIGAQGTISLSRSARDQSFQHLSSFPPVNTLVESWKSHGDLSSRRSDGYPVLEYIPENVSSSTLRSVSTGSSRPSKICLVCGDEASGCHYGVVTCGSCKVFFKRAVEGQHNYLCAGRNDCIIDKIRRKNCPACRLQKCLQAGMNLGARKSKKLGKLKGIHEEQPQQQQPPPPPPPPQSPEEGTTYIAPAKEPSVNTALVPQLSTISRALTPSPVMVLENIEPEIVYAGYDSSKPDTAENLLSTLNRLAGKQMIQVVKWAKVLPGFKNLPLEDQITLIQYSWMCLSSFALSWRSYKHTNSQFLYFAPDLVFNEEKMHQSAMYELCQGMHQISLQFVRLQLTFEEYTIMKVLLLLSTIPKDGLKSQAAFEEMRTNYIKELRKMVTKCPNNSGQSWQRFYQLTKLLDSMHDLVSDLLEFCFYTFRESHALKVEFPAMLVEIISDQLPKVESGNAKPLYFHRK
The experiment in a line: Nuclear hormone receptor binding assay, MR. Here is the method: Cell lysates from human embryonic kidney HEK293 cells overexpressing human GR (glucocorticoid receptor), AR (androgen receptor), MR (mineralocorticoid receptor), or PR (progesterone receptor) are used for receptor-ligand competition binding assays to determine Ki values.
Briefly, steroid receptor competition binding assays are run in a buffer containing 20 mM Hepes buffer (pH=7.6), 0.2 mM EDTA, 75 mM NaCl, 1.5 mM MgCl2, 20% glycerol, 20 mM sodium molybdate, 0.2 mM DTT (dithiothreitol), 20 μg/mL aprotinin and 20 μg/mL leupeptin. Typically, steroid receptor binding assays include radio-labeled ligands, such as 0.3 nM [^3H]-dexamethasone for GR binding, 0.36 nM [^3H]-methyltrienolone for AR binding, 0.25 nM [^3H]-aldosterone for MR binding, and 0.29 nM [^3H]-methyltrienolone for PR binding, and either 20 μg 293-GR lysate, 22 μg 293-AR lysate, 20 μg 293-MR lysate or 40 μg 293-PR lysate per well. Assays are typically run in 96-well format. Competing test compounds are added at various concentrations ranging from about 0.01 nM to 10 μM. Non-specific binding is determined in the presence of 500 nM dexamethasone for GR binding, 500 nM aldosterone for MR binding, or 500 nM methyltrienolone for AR and PR binding. […] After an incubation of 2 hours, plates are read in a Wallac Microbeta counter. […]

One may read the Ki as a dissociation constant, usually derived from enzyme kinetics or from competition with a known ligand. A higher Ki goes with a looser hold on the target. Consider `CC/C(=C1\c2ccc(Cl)cc2OCc2ncccc21)c1cccc(NS(C)(=O)=O)c1` [Compound (I), (E)-N-{3-[1-(8-Chloro-11H-10-oxa-1-aza-dibenzo[a,d]cyclohepten-5-ylidene)-propyl]-phenyl}-methanesulfonamide], for which the “reduction in serum osteocalcin levels compared with prednisolone” value in the series with serum osteocalcin is listed as “less reduction”. The same molecule showed a Ki in series [1] (HEK293 cell lysate expressing human MR, [3H]-aldosterone, mean of 5 determinations) of 0.117 µM. The “greater affinity for GR relative to MR” value in series [1] (binding selectivity GR vs MR) was at least 30 fold.
